Assay results published in patent US20200061076A1, “METHODS OF TREATING LEUKODYSTROPHIES” (Ramot at Tel-Aviv University Ltd., priority 2017, published 2020).

What was measured:
primary OPC = assay: OPC differentiation assay (IncuCyte); type: cell-based, mouse; details: 1 μM, 60 hours in differentiation medium (FIG. 13)
Procedure: Images were taken every 10 hours followed by analysis using IncuCyte ZOOM software (2016B).
5,000 cells OPCs per well were seeded in a 96 wells plate and maintained overnight in proliferation media (Emery et al. 2013). […] OPC differentiation was monitored by continuous imaging. Images taken at ten hours intervals were analyzed by IncuCyte NeuroTrack software for the following parameters: Neurite length, Neurite branch points, Cell body clusters and Cell body cluster area. Statistics—For all comparisons, Student's t-test was performed using ≥3 independent biological repeats for each group (methodological selection of sample size was not applied).

Mut MEFs [1] = assay: Cell survival assay, Crystal violet staining, Mut MEFs; type: cell-based, mouse; details: for Survival (%) ± SEM Mut MEFs: 24 hours, untreated cells set to 100%
Procedure: (§1) Cells were seeded on 96-wells plate at a density of 5000 cells per well. Astrocytes were seeded following coating with 0.001% PDL.

Mut MEFs [2] = assay: JC1 staining of intact and damaged mitochondria (mitochondrial membrane potential); type: cell-based, mouse
Procedure: Mut MEFs were treated or not for 6 hours with the indicated concentrations of p8G5 (blue), pre084 (purple), or NE-100 (yellow), washed and stained with Hoechst and JC1 for 30 minutes followed by image acquisition using In-Cell-Analyzer-2000. Shown is the % of red/green JC1 integrated intensity per cell relative to that in untreated WT cells of 2-4 independent experiments.
Following, the cells were washed, stained with Hoechst and JC-1 fluorescent dyes for 30 minutes, and subjected to image acquisition using In-Cell-Analyzer-2000. Shown is cellular content of damaged mitochondria (JC1 green channel, red bars), intact mitochondria (JC1 red channel, green bars) and damaged to intact mitochondria ratio (blue bars). Values of control (vehicle treated) cells was set to 100%.
Mut MEFs were treated with the indicated compounds at 10 μM for 24 hours followed by staining with fluorogenic dyes and image-based single-cell analysis. Shown is average effect on ROS level from at least 3-independent experiments ±SEM. […] Mut MEFs were incubated or not for 24 hours with 10 μM of the indicated compound, washed and stained with Crystal Violet. […] Mut MEFs were incubated or not for 24 hours with 10 μM of the indicated compound, washed and stained with JC1 and Hoechst followed by image-based single-cell analysis. Values of untreated cells were set as 100%. Shown is average of at least 3 independent experiments for each parameter compared to its matching control ±SEM. * p<0.05. Putative targets are indicated.
Mut MEFs were incubated or not for 24 hours with 10 μM of the indicated compounds, washed and stained with Hoechst and JC1 followed by image-based single-cell analysis. […] Mut MEFs were incubated or not with the indicated concentrations of the indicated compounds for 2 hours followed by addition of 50 ng/ml Tunicamycin (Tun) for additional 22 hours, stained with Crystal Violet followed by measurement of absorbance at 570 nm.
MEFs were seeded on 1% gelatin-coated 96-wells plate at a density of 5000 cells per well. 24 hours post-plating the cells were incubated with the tested compounds for additional 24 hours. Several DMSO-treated cells (control) were included in each plate at different locations. Following, the cells were stained by addition of fluorogenic dyes for further 30 minutes incubation at 37° C. […] CellROX was used together with Hoechst and CFSE; JC1 was used together with Hoechst. Cells were washed with Hank's balanced salt solution (HBSS) which was used for images acquisition using IN Cell Analyzer 2000 (GE Healthcare, Pitsburgh, Pa., USA). IN Cell Developer Toolbox 1.9.1 software (GE Healthcare) was used for analysis which included cells segmentation using Hoechst and/or CFSE signals. For analysis of JC1 staining, integrated intensity of green and red emissions were used for detection of damaged and intact mitochondria, respectively.

Mut primary astrocytes [3] = assay: Oxygen consumption (OCR), primary astrocytes; type: cell-based, mouse; details: 1 or 10 μm, 6 hours, normalized to cell number (FIGS. 17B-C)
Procedure: (§2) Shown is average relative quantity (RQ) of 2-6 independent experiments normalized to their untreated controls ±SEM. […] Values of ATP-linked respiration (FIG. 17B) and maximal respiration (FIG. 17C) were analyzed and normalized to cell number.
(§3) The data were normalized to cell number, obtained by Crystal Violet staining, or to mtDNA content.

Mut MEFs [4] = assay: Oxygen consumption (Seahorse XF Cell Mito Stress Test), MEFs; type: cell-based, mouse; details: for maximal respiration rate per mitochondrial content: 1 μM, 6 hours (FIG. 8C); for basal and ATP-linked respiration rate per mitochondrial DNA content: 6 hours (FIGS. 8A-B)
Procedure: Mut MEFs were treated or not for 6 hours with the indicated concentrations of the indicated Sig-1R binders. Oxygen consumption was measured in a XF96 Extracellular Flux Analyzer using the Seahorse XF Cell Mito Stress Test Kit. The Basal respiration (FIG. 7A) and ATP-linked respiration (FIG. 7B) data were normalized to biomass as determined by Crystal Violet staining.
Mut MEFs were treated or not for 6 hours with the indicated concentrations of the indicated Sig-1R binders. Oxygen consumption was measured in a XF96 Extracellular Flux Analyzer using the Seahorse XF Cell Mito Stress Test Kit. The Basal respiration (FIG. 8A), ATP-linked respiration (FIG. 8B) and maximal respiration (FIG. 8C) data was normalized to mtDNA content as detailed in FIG. 2.
as §3

Mut primary astrocytes [5] = assay: mtDNA quantification, primary astrocytes; type: cell-based, mouse; details: 1 or 10 μm, 6 hours (FIG. 17A)
Procedure: as §2

Mut MEFs [6] = assay: TMRE staining, flow cytometry; type: cell-based, mouse; details: 6 hours (FIGS. 5A-B)
Procedure: Mut MEFs were treated or untreated with the indicated concentrations of the indicated Sig-1R binders for 6 hours, stained by TMRE for 30 minutes and analyzed by flow cytometry. Shown are flow cytometry histograms and bar graphs representing % mean TMRE fluorescence intensity relative to non-treated WT cells of a representative experiment.
MEFs were seeded at a density of 4×10^4 cells per well in a 24-wells plate. 24 hours post-plating the cells were incubated with the tested compounds for additional 6 hours followed by staining with 200 nM Tetra-Methyl-Rhodamine-Ethyl esterperchlorate (TMRE) (Abcam) for 30 minutes at 37° C. Cells were removed by trypsinyzation, washed and resuspended in PBS. 5-10×10^3 cells were analyzed by Stratedigm S1000EXi cell sorter and FlowJo software (FLOWJO, LLC, Ashland, Oreg., USA).

WT astrocytes = assay: Cell survival assay, Crystal violet staining, WT astrocytes; type: cell-based, mouse; details: 24 hours, untreated cells set to 100%
Procedure: as §1

Mut astrocytes [7] = assay: Cell survival assay, Crystal violet staining, Mut astrocytes; type: cell-based, mouse; details: 24 hours, untreated cells set to 100%
Procedure: as §1

Mut MEFs [8] = assay: Survival under Tunicamycin-induced ER stress, Crystal Violet, MEFs; details: 30 μM, 24 hours, Tunicamycin during the last 22 hours (FIGS. 9 and 18)
Procedure: Mut MEFs were treated or not for 24 hours with the indicated concentrations of the indicated Sig-1R binders in the presence of 0.1 μg/ml Tunicamycin (Tun) during the last 22 hours. Following, the cells were washed, fixated and stained with Crystal Violet (CV) followed by measurement of absorbance at 570 nm. Shown is average % of CV staining relative to cells not treated with tunicamycin nor Sig-1R binder ±SEM of 3 independent experiments. *p<0.03.
Following, the cells were washed, fixated and stained with Crystal Violet and absorbance at 570 nm was measured. Data is presented relative to cells of the corresponding genotype not treated with p8G5 nor Tunicamycin. Shown is average % of CV staining ±SEM of 3 independent experiments.
Mut MEFs were treated or not for 24 hours with 10, 20 or 30 μM of the indicated Sig-1R binders in the presence of 50 ng/ml Tunicamycin (Tun) during the last 22 hours. Following, the cells were washed, fixated and stained with Crystal Violet (CV) followed by measurement of absorbance at 570 nm. Shown is % of CV staining relative to cells not treated with tunicamycin nor Sig-1R binder ±SEM of 3 independent experiments, *p<0.05.
Mut MEFs were incubated or not with the indicated concentrations of the indicated compounds for 2 hours followed by addition of 50 ng/ml Tunicamycin (Tun) for additional 22 hours, stained with Crystal Violet followed by measurement of absorbance at 570 nm. Shown is average normalized to Tun-treated cells without any compound ±SEM of 3 independent experiments. * not significant; ** p<0.02; *** all values p<0.04.

Mut MEFs [9] = assay: mtDNA quantification (qPCR of mitochondrial 12S rRNA and nuclear 18S rRNA genes), MEFs; type: cell-based, mouse; details: 6 hours incubation (FIG. 2)
Procedure: DNA extracted from WT and Mut MEFs that were treated or not for 6 hours with 0.1 μM, 1 μM or 10 μM of p8G5 (blue), Pre084 (known SIG-1R agonist, purple), pridopidine (known SIG-1R agonists, green) or NE-100 (known SIG-1R antagonist, yellow) was subjected to qPCR analysis of mitochondrial 12S rRNA and nuclear 18S rRNA genes.

Mut astrocytes [10] = assay: Survival under Tunicamycin-induced ER stress, Crystal Violet, astrocytes; type: cell-based, mouse; details: 30 μM, 50 ng/ml Tunicamycin last 22 hours (FIG. 19)
Procedure: WT and Mut astrocytes were treated or not for 24 hours with 20, 30 or 50 μM of the indicated Sig-1R binders in the presence of 50 ng/ml Tunicamycin (Tun) during the last 22 hours. Following, the cells were washed, fixated and stained with Crystal Violet (CV) followed by measurement of absorbance at 570 nm. Shown is % of CV staining relative to cells not treated with tunicamycin nor Sig-1R binder ±SEM of 3 independent experiments, *p<0.05.
as §1

[11] = Mutant MEFs, 1 μM, 24 hours (FIG. 12)

CC1=C2C[C@H]3[C@@H](CC=C4C[C@@H](O)CC[C@@]43C)[C@@H]2CC[C@]12O[C@@H]1C[C@H](C)CN[C@H]1[C@H]2C [Cyclopamine, reference compound]
neurite length, neurite branch points, cell body clusters and cell body cluster area (primary OPC): positive effect
Survival (%) ± SEM Mut MEFs (Mut MEFs [1]; 0.1 μM): 92 ± 2.5%
Survival (%) ± SEM Mut MEFs (Mut MEFs [1]; 1 μM): 95 ± 4.1%
Survival (%) ± SEM Mut MEFs (Mut MEFs [1]; 10 μM): 79 ± 1.4%
content of damaged mitochondria (JC1 green channel) (Mut MEFs [2]; [11]): decreased content of damaged mitochondria
content of intact mitochondria (JC1 red channel) (Mut MEFs [2]; [11]): increased content of intact mitochondria

O=C(OCCN1CCOCC1)C1(c2ccccc2)CCCCC1 [pre084, 2-morpholin-4-ylethyl 1-phenylcyclohexane-1-carboxylate]
ATP-linked and maximal respiration in mutant astrocytes (Mut primary astrocytes [3]): increased both ATP-linked and maximal respiration
maximal respiration rate per mitochondrial content (Mut MEFs [4]): increased the maximal respiration capacity per mitochondria to the level of untreated WT cells
basal and ATP-linked respiration rate per mitochondrial DNA content (Mut MEFs [4]): statistically significant increase
basal respiration and ATP-linked respiration per cell (OCR) (Mut MEFs [4]; 6 hours, normalized to biomass (FIGS. 7A-B)): no effect
mitochondrial content per cell in astrocytes (Mut primary astrocytes [5]): no effect on mitochondrial content per cell
Survival (%) ± SEM Mut MEFs (Mut MEFs [1]; 0.1 μM): 100 ± 2.1%
Survival (%) ± SEM Mut MEFs (Mut MEFs [1]; 1 μM): 101 ± 3.5%
Survival (%) ± SEM Mut MEFs (Mut MEFs [1]; 10 μM): 99 ± 1.5%
Survival (%) ± SEM Mut MEFs (Mut MEFs [1]; 20 μM): 97 ± 2.1%
Survival (%) ± SEM Mut MEFs (Mut MEFs [1]; 30 μM): 105 ± 1.9%
Survival (%) ± SEM Mut MEFs (Mut MEFs [1]; 50 μM): 80 ± 2.8%
Survival (%) ± SEM Mut MEFs (Mut MEFs [1]; 100 μM): 57 ± 2.2%
effect on survival of Mut cells (Mut MEFs [1]; as high as 30 μM (FIG. 4, Table 3)): did not have any negative effect on the survival
red/green JC1 signal (mitochondria with high to low membrane potential) (Mut MEFs [2]; Mut MEFs, 1 μM and 10 μM, 6 hours (FIG. 6)): increased the ratio between the content of mitochondria with high to low membrane potential
TMRE staining (mitochondrial membrane potential) (Mut MEFs [6]; 1 μM): increased TMRE staining to a level above that of untreated WT cells
Survival (%) ± SEM WT astrocytes (WT astrocytes; 1 μM): 114 ± 7.9%
Survival (%) ± SEM WT astrocytes (WT astrocytes; 10 μM): 95 ± 2.3%
Survival (%) ± SEM WT astrocytes (WT astrocytes; 30 μM): 82 ± 1.9%
Survival (%) ± SEM Mut astrocytes (Mut astrocytes [7]; 1 μM): 97 ± 0.5%
Survival (%) ± SEM Mut astrocytes (Mut astrocytes [7]; 10 μM): 93 ± 5.1%
Survival (%) ± SEM Mut astrocytes (Mut astrocytes [7]; 30 μM): 76 ± 4.9%
survival of Mut MEFs under Tunicamycin ER-stress (Mut MEFs [8]): able to rescue mutant MEFs
mitochondrial content in Mut MEFs (Mut MEFs [9]; 0.1 μM-1 μM): lowered the abnormal high mitochondrial content

CCCN1CCC(c2cccc(S(C)(=O)=O)c2)CC1 [pridopidine, 4-(3-(Methylsulfonyl)phenyl)-1-propylpiperidine]
survival rate of Mut astrocytes under ER-stress conditions (Mut astrocytes [10]): increased the survival rate
ATP-linked and maximal respiration in mutant astrocytes (Mut primary astrocytes [3]): increased both ATP-linked and maximal respiration
maximal respiration rate per mitochondrial content (Mut MEFs [4]): increased the maximal respiration capacity per mitochondria to the level of untreated WT cells
basal and ATP-linked respiration rate per mitochondrial DNA content (Mut MEFs [4]): beneficial effect
mitochondrial content per cell in astrocytes (Mut primary astrocytes [5]): no effect on mitochondrial content per cell
TMRE staining (mitochondrial membrane potential) (Mut MEFs [6]; 10 μM): increased TMRE staining to a level above that of untreated WT cells
mitochondrial content in Mut MEFs (Mut MEFs [9]; 1 μM-10 μM): lowered the abnormal high mitochondrial content
